Source: ChEMBL document CHEMBL3045169, “In vitro evaluation of the antibacterial and antifungal activity of some new pyrazolyl-quinazolin-4(3H)-one derivatives” (2012)

Tests used:
Assay type in all cases: functional
Aspergillus niger [1] = assay: Antifungal activity against Aspergillus niger ATCC 6275 by agar cup-plate method relative to fluconazole; parameters: concentration or dose not given beside the values
Aspergillus niger [2] = assay: Antifungal activity against Aspergillus niger ATCC 6275 at 10 ug/ml by agar cup-plate method; details: read-out: IZ
Aspergillus niger [3] = assay: Antifungal activity against Aspergillus niger ATCC 6275 at 20 ug/ml by agar cup-plate method; details: read-out: IZ
Candida albicans [4] = assay: Antifungal activity against Candida albicans ATCC 10231 by agar cup-plate method relative to fluconazole; parameters: concentration or dose not given beside the values
Candida albicans [5] = assay: Antifungal activity against Candida albicans ATCC 10231 at 10 ug/ml by agar cup-plate method; details: read-out: IZ
Candida albicans [6] = assay: Antifungal activity against Candida albicans ATCC 10231 at 20 ug/ml by agar cup-plate method; details: read-out: IZ
Pseudomonas aeruginosa [7] = assay: Antibacterial activity against Pseudomonas aeruginosa ATCC 9027 by agar cup-plate method relative to penicillin-G; parameters: concentration or dose not given beside the values
Pseudomonas aeruginosa [8] = assay: Antibacterial activity against Pseudomonas aeruginosa ATCC 9027 at 50 ug/ml by agar cup-plate method; details: read-out: IZ
Pseudomonas aeruginosa [9] = assay: Antibacterial activity against Pseudomonas aeruginosa ATCC 9027 at 100 ug/ml by agar cup-plate method; details: read-out: IZ
Escherichia coli [10] = assay: Antibacterial activity against Escherichia coli ATCC 25922 by agar cup-plate method relative to penicillin-G; parameters: concentration or dose not given beside the values
Escherichia coli [11] = assay: Antibacterial activity against Escherichia coli ATCC 25922 at 50 ug/ml by agar cup-plate method; details: read-out: IZ
Escherichia coli [12] = assay: Antibacterial activity against Escherichia coli ATCC 25922 at 100 ug/ml by agar cup-plate method; details: read-out: IZ
Bacillus subtilis [13] = assay: Antibacterial activity against Bacillus subtilis ATCC 6633 by agar cup plate method relative to penicillin-G; parameters: concentration or dose not given beside the values
Bacillus subtilis [14] = assay: Antibacterial activity against Bacillus subtilis ATCC 6633 at 50 ug/ml by agar cup plate method; details: read-out: IZ
Bacillus subtilis [15] = assay: Antibacterial activity against Bacillus subtilis ATCC 6633 at 100 ug/ml by agar cup plate method; details: read-out: IZ
Staphylococcus aureus [16] = assay: Antibacterial activity against Staphylococcus aureus ATCC 9144 by agar cup-plate method relative to penicillin-G; parameters: concentration or dose not given beside the values
Staphylococcus aureus [17] = assay: Antibacterial activity against Staphylococcus aureus ATCC 9144 at 50 ug/ml by agar cup-plate method; details: read-out: IZ
Staphylococcus aureus [18] = assay: Antibacterial activity against Staphylococcus aureus ATCC 9144 at 100 ug/ml by agar cup-plate method; details: read-out: IZ

SMILES	Activity (Aspergillus niger [1]) [%]	zone of inhibition at 10 µg/mL (Aspergillus niger [2]) [mm]	zone of inhibition at 20 µg/mL (Aspergillus niger [3]) [mm]	Activity (Candida albicans [4]) [%]	zone of inhibition at 10 µg/mL (Candida albicans [5]) [mm]	zone of inhibition at 20 µg/mL (Candida albicans [6]) [mm]	Activity (Pseudomonas aeruginosa [7]) [%]	zone of inhibition at 50 µg/mL (Pseudomonas aeruginosa [8]) [mm]	zone of inhibition at 100 µg/mL (Pseudomonas aeruginosa [9]) [mm]	Activity (Escherichia coli [10]) [%]	zone of inhibition at 50 µg/mL (Escherichia coli [11]) [mm]	zone of inhibition at 100 µg/mL (Escherichia coli [12]) [mm]	Activity (Bacillus subtilis [13]) [%]	zone of inhibition at 50 µg/mL (Bacillus subtilis [14]) [mm]	zone of inhibition at 100 µg/mL (Bacillus subtilis [15]) [mm]	Activity (Staphylococcus aureus [16]) [%]	zone of inhibition at 50 µg/mL (Staphylococcus aureus [17]) [mm]	zone of inhibition at 100 µg/mL (Staphylococcus aureus [18]) [mm]
O=c1c2cc(I)ccc2nc(Cc2ccccc2Nc2ccccc2)n1NC1=NNC(c2ccccc2[N+](=O)[O-])C1 (configuration not stated)	58.12	15	17	68.81	15	18	55.43	12	15	47.67	11	14	63.61	13	17	55.29	13	16
CN(C)c1ccc(C2CC(Nn3c(Cc4ccccc4Nc4ccccc4)nc4ccc(I)cc4c3=O)=NN2)cc1 (configuration not stated)	60.1	14	17	68.81	15	18	48.61	0	7	40.81	0	6	45.27	0	7	48.23	0	7
O=c1c2cc(I)ccc2nc(Cc2ccccc2Nc2ccccc2)n1NC1=NNC(c2ccc(O)cc2)C1 (configuration not stated)	51.18	11	14	56.01	13	15	37.4	7	9	32.33	6	8	41.49	9	11	38.15	8	10
O=c1c2cc(I)ccc2nc(Cc2ccccc2Nc2ccccc2)n1NC1=NNC(c2cccc(O)c2)C1 (configuration not stated)	45.04	0	7	49.07	0	7	39.56	8	10	34.11	7	9	47.05	11	13	42.34	10	12
O=c1c2cc(I)ccc2nc(Cc2ccccc2Nc2ccccc2)n1NC1=NNC(c2ccccc2Cl)C1 (configuration not stated)	66.9	16	19	76.62	17	20	48.61	0	7	44.45	0	7	45.27	0	7	44.39	0	6
O=c1c2cc(I)ccc2nc(Cc2ccccc2Nc2ccccc2)n1NC1=NNC(c2ccccc2O)C1 (configuration not stated)	38.11	8	10	49.95	9	12	39.56	8	10	34.11	7	9	41.49	9	11	38.15	8	10
O=c1c2cc(I)ccc2nc(Cc2ccccc2Nc2ccccc2)n1NC1=NNC(c2ccccc2)C1 (configuration not stated)	58.12	15	17	68.81	15	18	48.61	0	7	40.81	0	6	81.79	18	22	70.87	17	21
O=c1c2cc(I)ccc2nc(Cc2ccccc2Nc2ccccc2)n1NC1=NNC(c2cccc([N+](=O)[O-])c2)C1 (configuration not stated)	51.18	11	14	56.01	13	15	67.47	16	19	62.3	15	19	52.61	11	14	52.83	12	15
COc1ccc(C2CC(Nn3c(Cc4ccccc4Nc4ccccc4)nc4ccc(I)cc4c3=O)=NN2)cc1 (configuration not stated)	45.04	0	7	49.07	0	7	68.97	15	19	57.71	15	18	41.49	9	11	38.15	8	10
